Assay results taken from US12685735B2 (Foghorn Therapeutics Inc., priority 2020, dated 2026).
Like-named read-outs stand apart in the source and are kept apart here.

Key:
BRM = BRM (Homo sapiens, UniProt P51531); assay: ATPase catalytic activity assay of BRM (ADP-Glo); format: biochemical; conditions: for IC50: read-out: BRM IC50 (μM)*
Procedure: (§1) The ATPase catalytic activity of BRM or BRG-1 was measured by the in vitro biochemical assay using ADP-Glo™ (Promega, V9102). The ADP-Glo™ kinase assay is performed in two steps once the reaction is complete. The first step is to deplete any unconsumed ATP in the reaction. The second step is to convert the reaction product ADP to ATP, which will be utilized by the luciferase to generate luminesce and be detected by a luminescence reader, such as Envision.
(§2) Then following addition of 5 μL of ADP-Glo™ Reagent provided in the kit, the reaction incubates at room temperature for 40 minutes. Then 10 μL of Kinase Detection Reagent provided in the kit is added to convert ADP to ATP, and the reaction incubates at room temperature for 60 minutes. Finally, luminescence measurement is collected with a plate-reading luminometer, such as Envision.
as §1, with “The” for “The ATPase catalytic activity of BRM or BRG-1 was measured by the in vitro biochemical assay using ADP-Glo™ (Promega, V9102). The”

BRG-1 = BRG-1 (Homo sapiens, UniProt P51532); assay: ATPase catalytic activity assay of BRG-1 (ADP-Glo); format: biochemical; conditions: ATPase catalytic activity, ADP-Glo; for IC50: read-out: BRG1 IC50 (μM)*; for Emax: read-out: BRG1 Max % Inhibition
Chain of BRG-1 (P51532 whole entry): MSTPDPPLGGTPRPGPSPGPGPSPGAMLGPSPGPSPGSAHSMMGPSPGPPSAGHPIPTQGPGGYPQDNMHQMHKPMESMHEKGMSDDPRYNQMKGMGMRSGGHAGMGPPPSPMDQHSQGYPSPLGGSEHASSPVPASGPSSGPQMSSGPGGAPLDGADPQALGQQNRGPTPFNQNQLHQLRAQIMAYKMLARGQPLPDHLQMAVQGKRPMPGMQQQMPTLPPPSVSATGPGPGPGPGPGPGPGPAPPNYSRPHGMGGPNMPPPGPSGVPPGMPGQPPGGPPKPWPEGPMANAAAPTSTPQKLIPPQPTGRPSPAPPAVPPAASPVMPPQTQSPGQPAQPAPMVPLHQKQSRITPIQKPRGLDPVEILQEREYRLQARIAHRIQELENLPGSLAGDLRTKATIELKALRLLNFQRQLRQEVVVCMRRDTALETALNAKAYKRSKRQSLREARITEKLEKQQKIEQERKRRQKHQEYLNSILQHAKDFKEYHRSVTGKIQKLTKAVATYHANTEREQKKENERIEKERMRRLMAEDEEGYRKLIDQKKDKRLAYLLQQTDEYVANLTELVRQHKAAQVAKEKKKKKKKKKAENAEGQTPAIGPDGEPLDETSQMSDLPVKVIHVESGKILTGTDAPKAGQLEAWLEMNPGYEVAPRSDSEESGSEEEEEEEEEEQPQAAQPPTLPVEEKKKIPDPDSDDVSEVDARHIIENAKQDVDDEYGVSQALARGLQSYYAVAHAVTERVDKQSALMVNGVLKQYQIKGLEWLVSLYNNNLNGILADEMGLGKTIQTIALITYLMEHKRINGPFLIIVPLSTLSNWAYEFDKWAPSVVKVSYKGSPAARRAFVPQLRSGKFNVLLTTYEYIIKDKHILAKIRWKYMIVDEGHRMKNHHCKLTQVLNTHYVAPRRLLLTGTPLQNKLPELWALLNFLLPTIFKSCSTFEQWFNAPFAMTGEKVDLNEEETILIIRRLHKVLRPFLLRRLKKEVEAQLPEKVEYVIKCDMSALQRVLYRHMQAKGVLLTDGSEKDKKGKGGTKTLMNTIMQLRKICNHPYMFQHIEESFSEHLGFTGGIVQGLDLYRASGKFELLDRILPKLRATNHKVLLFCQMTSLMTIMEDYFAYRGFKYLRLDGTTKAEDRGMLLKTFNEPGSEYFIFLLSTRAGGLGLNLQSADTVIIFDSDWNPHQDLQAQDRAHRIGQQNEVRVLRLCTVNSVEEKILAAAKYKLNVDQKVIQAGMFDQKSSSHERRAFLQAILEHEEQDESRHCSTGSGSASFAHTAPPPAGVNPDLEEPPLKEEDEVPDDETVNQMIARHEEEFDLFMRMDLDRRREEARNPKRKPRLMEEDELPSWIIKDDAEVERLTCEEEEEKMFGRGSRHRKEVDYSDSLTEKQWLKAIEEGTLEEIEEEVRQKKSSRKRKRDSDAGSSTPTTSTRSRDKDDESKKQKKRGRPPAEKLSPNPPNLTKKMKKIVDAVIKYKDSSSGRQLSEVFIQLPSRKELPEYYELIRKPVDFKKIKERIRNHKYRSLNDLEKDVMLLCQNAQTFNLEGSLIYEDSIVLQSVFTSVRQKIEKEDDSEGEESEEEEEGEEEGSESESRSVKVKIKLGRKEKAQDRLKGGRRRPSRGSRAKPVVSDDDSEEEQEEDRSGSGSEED
Procedure: as §1, §2
as §1, with “The” for “The ATPase catalytic activity of BRM or BRG-1 was measured by the in vitro biochemical assay using ADP-Glo™ (Promega, V9102). The”

Chain of BRM (P51531 whole entry): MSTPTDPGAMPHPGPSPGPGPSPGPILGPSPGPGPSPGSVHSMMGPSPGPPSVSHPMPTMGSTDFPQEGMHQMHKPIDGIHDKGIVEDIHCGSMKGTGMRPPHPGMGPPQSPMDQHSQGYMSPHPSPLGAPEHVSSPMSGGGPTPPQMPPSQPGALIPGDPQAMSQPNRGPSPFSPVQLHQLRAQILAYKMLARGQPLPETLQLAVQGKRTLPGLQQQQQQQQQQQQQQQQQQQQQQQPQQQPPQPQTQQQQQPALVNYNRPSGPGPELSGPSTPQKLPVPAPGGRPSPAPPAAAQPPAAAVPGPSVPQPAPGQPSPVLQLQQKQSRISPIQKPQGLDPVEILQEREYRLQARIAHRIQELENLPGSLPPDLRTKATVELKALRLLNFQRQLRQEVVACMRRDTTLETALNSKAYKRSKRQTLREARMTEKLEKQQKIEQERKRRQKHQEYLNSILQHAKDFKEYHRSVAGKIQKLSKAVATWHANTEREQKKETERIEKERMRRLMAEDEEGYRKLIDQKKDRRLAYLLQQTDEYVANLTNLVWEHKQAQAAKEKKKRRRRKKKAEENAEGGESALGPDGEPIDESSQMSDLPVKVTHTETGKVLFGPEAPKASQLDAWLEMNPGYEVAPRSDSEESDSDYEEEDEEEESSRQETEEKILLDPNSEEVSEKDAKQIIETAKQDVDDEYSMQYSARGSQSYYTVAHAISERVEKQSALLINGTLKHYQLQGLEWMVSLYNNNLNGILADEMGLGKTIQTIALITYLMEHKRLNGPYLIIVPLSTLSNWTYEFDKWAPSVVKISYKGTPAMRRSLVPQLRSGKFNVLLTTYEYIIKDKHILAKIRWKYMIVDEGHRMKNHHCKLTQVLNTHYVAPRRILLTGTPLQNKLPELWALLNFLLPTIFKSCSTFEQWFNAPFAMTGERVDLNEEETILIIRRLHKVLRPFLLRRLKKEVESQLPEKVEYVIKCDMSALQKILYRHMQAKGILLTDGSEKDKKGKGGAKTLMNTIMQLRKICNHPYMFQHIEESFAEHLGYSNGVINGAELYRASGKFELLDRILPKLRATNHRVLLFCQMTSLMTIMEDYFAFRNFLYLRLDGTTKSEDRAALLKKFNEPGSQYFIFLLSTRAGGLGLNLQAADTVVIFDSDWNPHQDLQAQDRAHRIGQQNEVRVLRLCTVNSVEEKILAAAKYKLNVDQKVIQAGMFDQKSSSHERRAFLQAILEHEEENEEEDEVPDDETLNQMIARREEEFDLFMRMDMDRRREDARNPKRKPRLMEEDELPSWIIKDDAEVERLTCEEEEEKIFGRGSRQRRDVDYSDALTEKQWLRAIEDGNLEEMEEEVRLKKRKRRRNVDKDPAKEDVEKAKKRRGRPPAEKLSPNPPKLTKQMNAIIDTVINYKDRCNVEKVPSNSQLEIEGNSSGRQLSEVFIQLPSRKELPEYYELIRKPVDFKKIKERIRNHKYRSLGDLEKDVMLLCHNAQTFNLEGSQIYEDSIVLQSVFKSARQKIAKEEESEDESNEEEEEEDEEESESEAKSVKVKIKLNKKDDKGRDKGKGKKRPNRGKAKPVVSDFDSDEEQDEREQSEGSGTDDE

Row | SMILES | BRM Max % Inhibition (BRM) | IC50 (BRM) | IC50 (BRG-1) | Emax (BRG-1) | BRM Max % Inhibition (BRM; 30 nM BRM, 400 μM ATP) | IC50 (BRM; 30 nM BRM, 400 μM ATP) | IC50 (BRG-1; 30 nM BRG-1, 400 μM ATP) | Emax (BRG-1; 30 nM BRG-1, 400 μM ATP)
1 | CC(C)S(=O)(=O)c1cccc(C(=O)NCC(=O)Nc2nc(-c3cccc(-c4ccnc(CO)c4)c3)cs2)c1 [Compound 26, N-(2-((4-(3-(2-(hydroxymethyl)pyridin-4-yl)phenyl)thiazol-2-yl)amino)-2-oxoethyl)-3-(isopropylsulfonyl)benzamide] | >90% | < 0.1 µM | 0.1 to 1 µM | – | – | – | – | –
2 | CC(C)S(=O)(=O)c1cccc(C(=O)NCC(=O)Nc2nc(-c3cccc(CO[C@H]4CC[C@H](O)CC4)c3)cs2)c1 [Compound 17, N-(2-((4-(3-((((1R,4R)-4-hydroxycyclohexyl)oxy)methyl)phenyl)thiazol-2-yl)amino)-2-oxoethyl)-3-(isopropylsulfonyl)benzamide] | >90% | 0.1 to 1 µM | > 5 µM | > 60% | – | – | – | –
3 | CC(C)(CO)c1cccc(C(=O)NCC(=O)Nc2nc(-c3cccc(C#N)c3)cs2)c1 [Compound 106] | >80% | 1 to 5 µM | 1 to 5 µM | > 30% | – | – | – | –
4 | C[C@@H]1CN(c2cccc(-c3csc(NC(=O)CNC(=O)c4cnc5c(c4)[C@@](C)(CO)CC5)n3)c2)C[C@H](C)O1 [Compound 144, (S)-N-(2-((4-(3-((cis)-2,6-dimethylmorpholino)phenyl)thiazol-2-yl)amino)-2-oxoethyl)-5-(hydroxymethyl)-5-methyl-6,7-dihydro-5H-cyclopenta[b]pyridine-3-carboxamide] | >95% | 0.1 to 1 µM | 0.1 to 1 µM | > 80% | – | – | – | –
5 | CC(C)S(=O)(=O)c1cccc(C(=O)NCC(=O)Nc2nc(-c3cccc(-c4cccc(C#N)c4)c3)cs2)c1 [Compound 24, N-(2-((4-(3′-cyano-[1,1′-biphenyl]-3-yl)thiazol-2-yl)amino)-2-oxoethyl)-3-(isopropylsulfonyl)benzamide] | >90% | 0.1 to 1 µM | 1 to 5 µM | – | – | – | – | –
6 | C[C@@]1(F)COCc2ccc(C(=O)NCC(=O)Nc3nc(-c4cccc(C(F)F)c4)cs3)cc21 [Compound 341, (S)-N-(2-((4-(3-(difluoromethyl)phenyl)thiazol-2-yl)amino)-2-oxoethyl)-4-fluoro-4-methylisochromane-6-carboxamide] | >95% | < 0.1 µM | 0.1 to 1 µM | > 95% | – | – | – | –
7 | COC[C@H](NC(=O)c1ccnc(C(C)(C)C)c1)C(=O)Nc1nc(-c2cccc(N3C[C@@H](C)O[C@@H](C)C3)c2)cs1 [Compound 436, 2-(tert-butyl)-N-((S)-1-((4-(3-((cis)-2,6-dimethylmorpholino)phenyl)thiazol-2-yl)amino)-3-methoxy-1-oxopropan-2-yl)isonicotinamide] | – | – | – | – | >90% | 0.1 to 1 µM | 1 to 5 µM | > 90%
8 | O=C(CNC(=O)c1cccc(C2(C(F)F)COC2)c1)Nc1nc(-c2cccc(N3CCC3)c2)cs1 [Compound 362, N-(2-((4-(3-(azetidin-1-yl)phenyl)thiazol-2-yl)amino)-2-oxoethyl)-3-(3-(difluoromethyl)oxetan-3-yl)benzamide] | >90% | < 0.1 µM | 0.1 to 1 µM | > 90% | – | – | – | –
9 | C[C@@H]1CN(c2cccc(-c3csc(NC(=O)CNC(=O)c4ccc5c(c4)C(F)(C(F)F)CCO5)n3)n2)C[C@H](C)O1 (stereo in doubt) [Compound 272, (R)-4-(difluoromethyl)-N-(2-((4-(6-((cis)-2,6-dimethylmorpholino)pyridin-2-yl)thiazol-2-yl)amino)-2-oxoethyl)-4-fluorochromane-6-carboxamide] | >95% | < 0.1 µM | < 0.1 µM | > 95% | – | – | – | –
10 | Cc1nccc(-c2cccc(-c3csc(NC(=O)CNC(=O)c4cccc(S(=O)(=O)C(C)C)c4)n3)c2)n1 [Compound 13, 3-(isopropylsulfonyl)-N-(2-((4-(3-(2-methylpyrimidin-4-yl)phenyl)thiazol-2-yl)amino)-2-oxoethyl)benzamide] | >95% | < 0.1 µM | < 0.1 µM | > 95% | – | – | – | –
11 | Cc1cc(-c2cccc(-c3csc(NC(=O)CNC(=O)c4cccc(C(C)(C)CO)c4)n3)c2)nc(C)n1 [Compound 93] | >95% | < 0.1 µM | 0.1 to 1 µM | > 90% | – | – | – | –
12 | C[C@H](NC(=O)c1cccc(C(C)(C)CN)c1)C(=O)Nc1nc(-c2cccc(-c3ccncc3)c2)cs1 [Compound 65, (S)-3-(1-amino-2-methylpropan-2-yl)-N-(1-oxo-1-((4-(3-(pyridin-4-yl)phenyl)thiazol-2-yl)amino)propan-2-yl)benzamide] | >90% | 0.1 to 1 µM | 0.1 to 1 µM | > 95% | – | – | – | –
13 | O=C(CNC(=O)c1ccc2c(c1)C1(CCNC1=O)CC2)Nc1nc(-c2cccc(-c3ccncc3)c2)cs1 (centres unmarked) [Compound 108] | >95% | 0.1 to 1 µM | 1 to 5 µM | > 80% | – | – | – | –
14 | C[C@@H]1CN(c2cccc(-c3csc(NC(=O)CNC(=O)c4ccc5c(c4)[C@@]4(CCC[C@H]4O)CC5)n3)c2)C[C@H](C)O1 [Compound 188, (1R,2R)-N-(2-((4-(3-((cis)-2,6-dimethylmorpholino)phenyl)thiazol-2-yl)amino)-2-oxoethyl)-2-hydroxy-2′,3′-dihydrospiro[cyclopentane-1,1′-indene]-6′-carboxamide] | >90% | 0.1 to 1 µM | 1 to 5 µM | > 50% | – | – | – | –
15 | COc1cc(F)cc(-c2csc(NC(=O)CNC(=O)c3ccc4c(c3)[C@](C)(C#N)COC4)n2)c1 [Compound 377, (R)-4-cyano-N-(2-((4-(3-fluoro-5-methoxyphenyl)thiazol-2-yl)amino)-2-oxoethyl)-4-methylisochromane-6-carboxamide] | >95% | < 0.1 µM | < 0.1 µM | > 95% | – | – | – | –
16 | COc1cccc(-c2csc(NC(=O)C3(NC(=O)c4ccc5c(c4)[C@](C)(C#N)COC5)CC3(F)F)n2)c1 (stereo partly drawn) [Compound 336, (R)-4-cyano-N-(2,2-difluoro-1-((4-(3-methoxyphenyl)thiazol-2-yl)carbamoyl)cyclopropyl)-4-methylisochromane-6-carboxamide] | >85% | 0.1 to 1 µM | 1 to 5 µM | > 85% | – | – | – | –
17 | C[C@@H]1CN(c2cc(F)cc(-c3csc(NC(=O)CNC(=O)c4ccc(Cl)c(C(C)(C)CO)c4)n3)c2)C[C@H](C)O1 [Compound 199, 4-chloro-N-[2-[[4-[3-[(cis)-2,6-dimethylmorpholin-4-yl]-5-fluoro-phenyl]thiazol-2-yl]amino]-2-oxo-ethyl]-3-(2-hydroxy-1,1-dimethyl-ethyl)benzamide] | >95% | < 0.1 µM | < 0.1 µM | > 95% | – | – | – | –
18 | CC(=O)NCc1cccc(-c2cccc(-c3csc(NC(=O)CNC(=O)c4cccc(S(=O)(=O)C(C)C)c4)n3)c2)c1 [Compound 111, N-(2-((4-(3′-(acetamidomethyl)-[1,1′-biphenyl]-3-yl)thiazol-2-yl)amino)-2-oxoethyl)-3-(isopropylsulfonyl) benzamide] | >90% | 0.1 to 1 µM | > 5 µM | > 40% | – | – | – | –
19 | COC(=O)N1CCC[C@@H](c2csc(NC(=O)CNC(=O)c3ccc4c(c3)[C@](C)(C#N)COC4)n2)C1 [Compound 355, methyl (R)-3-(2-(2-((R)-4-cyano-4-methylisochromane-6-carboxamido)acetamido)thiazol-4-yl)piperidine-1-carboxylate] | >95% | < 0.1 µM | 0.1 to 1 µM | > 95% | – | – | – | –
20 | C[C@@]1(C#N)COCc2ccc(C(=O)NCC(=O)Nc3nc(-c4cc(F)cc(N5CCC5)c4)cs3)cc21 [Compound 364, (R)-N-(2-((4-(3-(azetidin-1-yl)-5-fluorophenyl)thiazol-2-yl)amino)-2-oxoethyl)-4-cyano-4-methylisochromane-6-carboxamide] | >95% | < 0.1 µM | < 0.1 µM | > 95% | – | – | – | –
21 | C[C@@H]1CN(c2cccc(-c3csc(NC(=O)CNC(=O)c4ccc5c(c4)C(C)(C)COC5)n3)n2)C[C@H](C)O1 [Compound 282, N-(2-((4-(6-((cis)-2,6-dimethylmorpholino)pyridin-2-yl)thiazol-2-yl)amino)-2-oxoethyl)-4,4-dimethylisochromane-6-carboxamide] | >95% | < 0.1 µM | 0.1 to 1 µM | > 95% | – | – | – | –
22 | Cc1nccc(-c2cccc(-c3csc(NC(=O)CNC(=O)c4ccc5c(c4)[C@](C)(CO)CCC5)n3)n2)n1 [Compound 212, (4R)-4-(hydroxymethyl)-4-methyl-N-[2-[[4-[6-(2-methylpyrimidin-4-yl)-2-pyridyl]thiazol-2-yl]amino]-2-oxo-ethyl]tetralin-6-carboxamide] | >70% | 0.1 to 1 µM | > 5 µM | < 30% | – | – | – | –
